According to US9944602B2, “Piperidinone herbicides” (E. I. DU PONT DE NEMOURS AND COMPANY, priority 2014, dated 2018):

Legend:
Assay type in all cases: in vivo
[1] = test system: barnyardgrass (Echinochloa crus-galli); test: Test A preemergence barnyardgrass; conditions: 0 to 100 scale, 0 no effect, 100 complete control
How it was run: (§1)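 Plants were grown in a blend of loam soil and sand. For preemergence testing the soil was sprayed directly after seeding, while postemergence testing used seedlings 2–10 cm high at one to two leaves; all treatments were rated visually for injury (0–100) after ~10 d.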

kochia (Kochia scoparia) [2] = test: Test A preemergence kochia; conditions: 0 to 100 scale, 0 no effect, 100 complete control
How it was run: as §1

[3] = test system: ragweed (common ragweed, Ambrosia elatior); test: Test A preemergence ragweed; conditions: 0 to 100 scale, 0 no effect, 100 complete control
How it was run: as §1

[4] = test system: ryegrass, Italian (Italian ryegrass, Lolium multiflorum); test: Test A preemergence ryegrass, Italian; conditions: 0 to 100 scale, 0 no effect, 100 complete control
How it was run: as §1

[5] = test system: foxtail, giant (giant foxtail, Setaria faberii); test: Test A preemergence foxtail, giant; conditions: 0 to 100 scale, 0 no effect, 100 complete control
How it was run: as §1

[6] = test system: pigweed (Amaranthus retroflexus); test: Test A preemergence pigweed; conditions: 0 to 100 scale, 0 no effect, 100 complete control
How it was run: as §1

[7] = test system: barnyardgrass (Echinochloa crus-galli); test: Test A postemergence barnyardgrass; conditions: 0 to 100 scale, 0 is no effect, 100 is complete control
How it was run: as §1

kochia (Kochia scoparia) [8] = test: Test A postemergence kochia; conditions: 0 to 100 scale, 0 is no effect, 100 is complete control
How it was run: as §1

[9] = test system: ragweed (common ragweed, Ambrosia elatior); test: Test A postemergence ragweed; conditions: 0 to 100 scale, 0 is no effect, 100 is complete control
How it was run: as §1

[10] = test system: ryegrass, Italian (Italian ryegrass, Lolium multiflorum); test: Test A postemergence ryegrass, Italian; conditions: 0 to 100 scale, 0 is no effect, 100 is complete control
How it was run: as §1

[11] = test system: foxtail, giant (giant foxtail, Setaria faberii); test: Test A postemergence foxtail, giant; conditions: 0 to 100 scale, 0 is no effect, 100 is complete control
How it was run: as §1

[12] = test system: pigweed (Amaranthus retroflexus); test: Test A postemergence pigweed; conditions: 0 to 100 scale, 0 is no effect, 100 is complete control
How it was run: as §1

[13] = test system: wheat (Triticum aestivum); test: Test A postemergence wheat; conditions: 0 to 100 scale, 0 is no effect, 100 is complete control
How it was run: as §1

corn (Zea mays) = test: Test A postemergence corn; conditions: 0 to 100 scale, 0 is no effect, 100 is complete control
How it was run: as §1

[14] = test system: blackgrass (Alopecurus myosuroides); test: Test A postemergence blackgrass; conditions: 0 to 100 scale, 0 is no effect, 100 is complete control
How it was run: as §1

[15] = test system: galium (catchweed bedstraw, Galium aparine); test: Test A postemergence galium; conditions: 0 to 100 scale, 0 is no effect, 100 is complete control
How it was run: as §1

rice (Oryza sativa) = test: Test B flooded paddy test rice; conditions: Table B, Flood, 250 g ai/ha, scale 0 to 100
How it was run: (§2)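 Plants grown to the 2-leaf stage; pots flooded to 3 cm above soil at treatment, compound applied directly into paddy water, depth held throughout. Greenhouse 13 to 15 d, then visual evaluation against untreated controls.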

[16] = test system: sedge, umbrella (small-flower umbrella sedge, Cyperus difformis); test: Test B flooded paddy test sedge, umbrella; conditions: Table B, Flood, 250 g ai/ha, scale 0 to 100
How it was run: as §2

[17] = test system: ducksalad (Heteranthera limosa); test: Test B flooded paddy test ducksalad; conditions: Table B, Flood, 250 g ai/ha, scale 0 to 100
How it was run: as §2

[18] = test system: barnyardgrass (Echinochloa crus-galli); test: Test B flooded paddy test barnyardgrass; conditions: Table B, Flood, 250 g ai/ha, scale 0 to 100
How it was run: as §2

O=C1NCC[C@@H](c2cccc(Cl)c2)[C@@H]1C(=O)Nc1cccc(F)c1F [Compound 43]
Barnyardgrass plant response rating ([1]; 125 g ai/ha): 0
Barnyardgrass plant response rating ([1]; 500 g ai/ha): 0
Kochia plant response rating (kochia (Kochia scoparia) [2]; 125 g ai/ha): 0
Kochia plant response rating (kochia (Kochia scoparia) [2]; 500 g ai/ha): 0
Ragweed plant response rating ([3]; 125 g ai/ha): 0
Ragweed plant response rating ([3]; 500 g ai/ha): 0
Ryegrass, Italian plant response rating ([4]; 125 g ai/ha): 0
Ryegrass, Italian plant response rating ([4]; 500 g ai/ha): 0
Foxtail, Giant plant response rating ([5]; 125 g ai/ha): 0
Foxtail, Giant plant response rating ([5]; 500 g ai/ha): 0
Pigweed plant response rating ([6]; 125 g ai/ha): 0
Pigweed plant response rating ([6]; 500 g ai/ha): 0
Plant response rating, Barnyardgrass ([7]; 125 g ai/ha): 0
Plant response rating, Barnyardgrass ([7]; 500 g ai/ha): 0
Plant response rating, Kochia (kochia (Kochia scoparia) [8]; 125 g ai/ha): 0
Plant response rating, Kochia (kochia (Kochia scoparia) [8]; 500 g ai/ha): 0
Plant response rating, Ragweed ([9]; 125 g ai/ha): 0
Plant response rating, Ragweed ([9]; 500 g ai/ha): 0
Plant response rating, Ryegrass, Italian ([10]; 125 g ai/ha): 0
Plant response rating, Ryegrass, Italian ([10]; 500 g ai/ha): 0
Plant response rating, Foxtail, Giant ([11]; 125 g ai/ha): 0
Plant response rating, Foxtail, Giant ([11]; 500 g ai/ha): 0
Plant response rating, Pigweed ([12]; 125 g ai/ha): 0
Plant response rating, Pigweed ([12]; 500 g ai/ha): 0
Plant response rating, Wheat ([13]; 125 g ai/ha): 0
Plant response rating, Wheat ([13]; 500 g ai/ha): 0
Plant response rating, Corn (corn (Zea mays); 125 g ai/ha): 0
Plant response rating, Corn (corn (Zea mays); 500 g ai/ha): 0
Plant response rating, Blackgrass ([14]; 125 g ai/ha): 0
Plant response rating, Blackgrass ([14]; 500 g ai/ha): 0
Plant response rating, Galium ([15]; 125 g ai/ha): 0
Plant response rating, Galium ([15]; 500 g ai/ha): 0
Plant response rating (rice (Oryza sativa)): 0
Plant response rating [16]: 0
Plant response rating [17]: 0
Plant response rating [18]: 0

O=C1NCCC(c2cccc(C(F)F)c2)C1C(=O)Nc1ccc(F)c(F)c1F (stereo not drawn) [Compound 47]
Barnyardgrass plant response rating ([1]; 125 g ai/ha): 70
Barnyardgrass plant response rating ([1]; 500 g ai/ha): 90
Kochia plant response rating (kochia (Kochia scoparia) [2]; 125 g ai/ha): 0
Kochia plant response rating (kochia (Kochia scoparia) [2]; 500 g ai/ha): 0
Ragweed plant response rating ([3]; 125 g ai/ha): 0
Ragweed plant response rating ([3]; 500 g ai/ha): 0
Ryegrass, Italian plant response rating ([4]; 125 g ai/ha): 0
Ryegrass, Italian plant response rating ([4]; 500 g ai/ha): 40
Foxtail, Giant plant response rating ([5]; 125 g ai/ha): 80
Foxtail, Giant plant response rating ([5]; 500 g ai/ha): 90
Pigweed plant response rating ([6]; 125 g ai/ha): 0
Pigweed plant response rating ([6]; 500 g ai/ha): 0
Plant response rating, Barnyardgrass ([7]; 125 g ai/ha): 50
Plant response rating, Barnyardgrass ([7]; 500 g ai/ha): 90
Plant response rating, Kochia (kochia (Kochia scoparia) [8]; 125 g ai/ha): 0
Plant response rating, Kochia (kochia (Kochia scoparia) [8]; 500 g ai/ha): 0
Plant response rating, Ragweed ([9]; 125 g ai/ha): 0
Plant response rating, Ragweed ([9]; 500 g ai/ha): 0
Plant response rating, Ryegrass, Italian ([10]; 125 g ai/ha): 0
Plant response rating, Ryegrass, Italian ([10]; 500 g ai/ha): 20
Plant response rating, Foxtail, Giant ([11]; 125 g ai/ha): 70
Plant response rating, Foxtail, Giant ([11]; 500 g ai/ha): 80
Plant response rating, Pigweed ([12]; 125 g ai/ha): 0
Plant response rating, Pigweed ([12]; 500 g ai/ha): 0
Plant response rating, Wheat ([13]; 125 g ai/ha): 0
Plant response rating, Wheat ([13]; 500 g ai/ha): 30
Plant response rating, Corn (corn (Zea mays); 125 g ai/ha): 0
Plant response rating, Corn (corn (Zea mays); 500 g ai/ha): 0
Plant response rating, Blackgrass ([14]; 125 g ai/ha): 0
Plant response rating, Blackgrass ([14]; 500 g ai/ha): 0
Plant response rating, Galium ([15]; 125 g ai/ha): 0
Plant response rating, Galium ([15]; 500 g ai/ha): 0
Plant response rating (rice (Oryza sativa)): 0
Plant response rating [16]: 0
Plant response rating [17]: 50
Plant response rating [18]: 0

O=C1NCCC(c2cccc(C(F)F)c2)C1C(=O)Nc1ccccc1F (stereo not drawn) [Compound 48]
Barnyardgrass plant response rating ([1]; 125 g ai/ha): 40
Barnyardgrass plant response rating ([1]; 500 g ai/ha): 90
Kochia plant response rating (kochia (Kochia scoparia) [2]; 125 g ai/ha): 0
Kochia plant response rating (kochia (Kochia scoparia) [2]; 500 g ai/ha): 0
Ragweed plant response rating ([3]; 125 g ai/ha): 0
Ragweed plant response rating ([3]; 500 g ai/ha): 0
Ryegrass, Italian plant response rating ([4]; 125 g ai/ha): 0
Ryegrass, Italian plant response rating ([4]; 500 g ai/ha): 0
Foxtail, Giant plant response rating ([5]; 125 g ai/ha): 70
Foxtail, Giant plant response rating ([5]; 500 g ai/ha): 90
Pigweed plant response rating ([6]; 125 g ai/ha): 0
Pigweed plant response rating ([6]; 500 g ai/ha): 0
Plant response rating, Barnyardgrass ([7]; 125 g ai/ha): 30
Plant response rating, Barnyardgrass ([7]; 500 g ai/ha): 80
Plant response rating, Kochia (kochia (Kochia scoparia) [8]; 125 g ai/ha): 0
Plant response rating, Kochia (kochia (Kochia scoparia) [8]; 500 g ai/ha): 0
Plant response rating, Ragweed ([9]; 125 g ai/ha): 0
Plant response rating, Ragweed ([9]; 500 g ai/ha): 0
Plant response rating, Ryegrass, Italian ([10]; 125 g ai/ha): 0
Plant response rating, Ryegrass, Italian ([10]; 500 g ai/ha): 0
Plant response rating, Foxtail, Giant ([11]; 125 g ai/ha): 0
Plant response rating, Foxtail, Giant ([11]; 500 g ai/ha): 30
Plant response rating, Pigweed ([12]; 125 g ai/ha): 0
Plant response rating, Pigweed ([12]; 500 g ai/ha): 0
Plant response rating, Wheat ([13]; 125 g ai/ha): 0
Plant response rating, Wheat ([13]; 500 g ai/ha): 0
Plant response rating, Corn (corn (Zea mays); 125 g ai/ha): 0
Plant response rating, Corn (corn (Zea mays); 500 g ai/ha): 0
Plant response rating, Blackgrass ([14]; 125 g ai/ha): 0
Plant response rating, Blackgrass ([14]; 500 g ai/ha): 0
Plant response rating, Galium ([15]; 125 g ai/ha): 0
Plant response rating, Galium ([15]; 500 g ai/ha): 0
Plant response rating (rice (Oryza sativa)): 15
Plant response rating [16]: 0
Plant response rating [17]: 60
Plant response rating [18]: 20

O=C(Nc1ccccc1C(F)(F)F)C1C(=O)N(C2CC2)CCC1c1ccc(F)cc1 (stereo not drawn) [Compound 50]
Barnyardgrass plant response rating ([1]; 125 g ai/ha): 0
Barnyardgrass plant response rating ([1]; 500 g ai/ha): 0
Kochia plant response rating (kochia (Kochia scoparia) [2]; 125 g ai/ha): 0
Kochia plant response rating (kochia (Kochia scoparia) [2]; 500 g ai/ha): 0
Ragweed plant response rating ([3]; 125 g ai/ha): 0
Ragweed plant response rating ([3]; 500 g ai/ha): 0
Ryegrass, Italian plant response rating ([4]; 125 g ai/ha): 0
Ryegrass, Italian plant response rating ([4]; 500 g ai/ha): 0
Foxtail, Giant plant response rating ([5]; 125 g ai/ha): 0
Foxtail, Giant plant response rating ([5]; 500 g ai/ha): 40
Pigweed plant response rating ([6]; 125 g ai/ha): 0
Pigweed plant response rating ([6]; 500 g ai/ha): 0
Plant response rating, Barnyardgrass ([7]; 125 g ai/ha): 0
Plant response rating, Barnyardgrass ([7]; 500 g ai/ha): 0
Plant response rating, Kochia (kochia (Kochia scoparia) [8]; 125 g ai/ha): 0
Plant response rating, Kochia (kochia (Kochia scoparia) [8]; 500 g ai/ha): 0
Plant response rating, Ragweed ([9]; 125 g ai/ha): 0
Plant response rating, Ragweed ([9]; 500 g ai/ha): 0
Plant response rating, Ryegrass, Italian ([10]; 125 g ai/ha): 0
Plant response rating, Ryegrass, Italian ([10]; 500 g ai/ha): 0
Plant response rating, Foxtail, Giant ([11]; 125 g ai/ha): 0
Plant response rating, Foxtail, Giant ([11]; 500 g ai/ha): 0
Plant response rating, Pigweed ([12]; 125 g ai/ha): 0
Plant response rating, Pigweed ([12]; 500 g ai/ha): 0
Plant response rating, Wheat ([13]; 125 g ai/ha): 0
Plant response rating, Wheat ([13]; 500 g ai/ha): 0
Plant response rating, Corn (corn (Zea mays); 125 g ai/ha): 0
Plant response rating, Corn (corn (Zea mays); 500 g ai/ha): 0
Plant response rating, Blackgrass ([14]; 125 g ai/ha): 0
Plant response rating, Blackgrass ([14]; 500 g ai/ha): 0
Plant response rating, Galium ([15]; 125 g ai/ha): 0
Plant response rating, Galium ([15]; 500 g ai/ha): 0
Plant response rating (rice (Oryza sativa)): 0
Plant response rating [16]: 0
Plant response rating [17]: 0
Plant response rating [18]: 0
